Assay results taken from paper PMC6582940 (Molecular pharmaceutics, 2018).
Where a name gives a salt, the structure may show the parent alone.

Biological target: ABCB1 (Homo sapiens, UniProt P08183)
Experiment: competition of […]IAAP photoaffinity labeling in ABCB1 membranes
Assay type: binding

Chain of ABCB1 (P08183 whole entry): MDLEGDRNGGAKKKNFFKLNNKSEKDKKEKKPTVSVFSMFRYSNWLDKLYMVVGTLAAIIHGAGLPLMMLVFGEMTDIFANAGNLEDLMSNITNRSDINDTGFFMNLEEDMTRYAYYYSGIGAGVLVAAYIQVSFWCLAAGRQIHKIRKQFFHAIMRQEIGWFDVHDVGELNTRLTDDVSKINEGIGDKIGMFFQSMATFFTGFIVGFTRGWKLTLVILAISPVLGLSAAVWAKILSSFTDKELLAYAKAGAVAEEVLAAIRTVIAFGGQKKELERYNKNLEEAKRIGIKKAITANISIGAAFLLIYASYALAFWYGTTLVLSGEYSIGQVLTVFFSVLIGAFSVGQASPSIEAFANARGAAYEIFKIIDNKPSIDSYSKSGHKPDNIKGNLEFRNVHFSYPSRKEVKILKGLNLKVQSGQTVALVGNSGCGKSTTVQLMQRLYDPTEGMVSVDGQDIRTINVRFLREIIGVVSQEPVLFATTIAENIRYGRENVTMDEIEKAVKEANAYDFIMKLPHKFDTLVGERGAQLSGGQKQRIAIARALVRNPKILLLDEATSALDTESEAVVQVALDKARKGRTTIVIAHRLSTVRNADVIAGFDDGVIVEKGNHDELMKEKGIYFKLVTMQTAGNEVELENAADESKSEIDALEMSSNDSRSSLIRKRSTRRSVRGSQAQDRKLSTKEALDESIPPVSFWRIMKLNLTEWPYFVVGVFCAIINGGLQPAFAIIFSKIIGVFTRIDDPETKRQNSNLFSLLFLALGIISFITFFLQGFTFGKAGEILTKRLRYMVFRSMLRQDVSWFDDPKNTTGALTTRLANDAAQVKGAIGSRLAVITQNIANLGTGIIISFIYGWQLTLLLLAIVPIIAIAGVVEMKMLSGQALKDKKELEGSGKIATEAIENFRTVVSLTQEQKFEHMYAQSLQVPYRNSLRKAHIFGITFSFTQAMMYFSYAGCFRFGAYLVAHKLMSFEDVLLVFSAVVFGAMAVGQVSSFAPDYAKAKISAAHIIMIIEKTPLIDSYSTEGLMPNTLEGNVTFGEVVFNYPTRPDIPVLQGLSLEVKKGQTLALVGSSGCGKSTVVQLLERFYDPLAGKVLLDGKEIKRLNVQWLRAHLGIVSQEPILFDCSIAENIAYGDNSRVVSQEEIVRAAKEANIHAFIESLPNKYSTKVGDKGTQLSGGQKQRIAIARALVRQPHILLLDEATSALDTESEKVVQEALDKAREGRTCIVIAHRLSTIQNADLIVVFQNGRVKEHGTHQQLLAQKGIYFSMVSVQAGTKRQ

COc1ccc(CCC2c3cc(OCc4ccccc4)c(OC)cc3CCN2C)cc1OCc1ccccc1 (racemic) [isoquinoline 2, (±)-7-benzyloxy-1-(3-benzyloxy-4-methoxyphenethyl)-1,2,3,4-tetrahydro-6-methoxy-2-methylisoquinoline oxalate]
IC50: 63 ± 12 nM
